We go through 6 molecules from patent publication US20240368123A1, “AROMATIC RING-CONTAINING BIOLOGICAL ANTAGONIST, AND PREPARATION METHOD THEREFOR AND USE THEREOF” (SHANGHAI HANSOH BIOMEDICAL CO., LTD., priority 2021, published 2024).

Structures are written as SMILES.

Broadly, the IC50 is the concentration needed to halve the response being measured.

This experiment addresses T1, AT1 receptors (Homo sapiens, UniProt P30556).
T1 construct: host or cells: HEK293
T1 sequence (P30556 1-359): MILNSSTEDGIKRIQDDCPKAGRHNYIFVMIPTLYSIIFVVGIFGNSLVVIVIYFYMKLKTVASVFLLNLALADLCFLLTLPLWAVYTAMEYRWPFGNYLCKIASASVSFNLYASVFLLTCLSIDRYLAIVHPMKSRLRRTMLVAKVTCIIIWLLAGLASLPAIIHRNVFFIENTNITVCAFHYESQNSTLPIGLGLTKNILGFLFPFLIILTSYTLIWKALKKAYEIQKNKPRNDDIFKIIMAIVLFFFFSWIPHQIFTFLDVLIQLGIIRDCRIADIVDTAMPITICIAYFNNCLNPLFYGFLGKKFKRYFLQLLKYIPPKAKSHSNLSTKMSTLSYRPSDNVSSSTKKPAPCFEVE
As to the kind of experiment: Effect on calcium current in cells stably expressing AT1 receptors (FLIPR, antagonist mode). In kind it is cell-based. As to conditions: HEK293-AT1 cells, Fluo-8 AM, FLIPR Tetra; read-out: IC50 values of compounds on calcium current in cells stably expressing AT1 receptors. The text has this: Test Example 1. Determination of the Effect of the Compounds of the Present Invention on Calcium Current in Cells Stably Expressing AT1 Receptors
Antagonistic effect of test compounds on HEK293-AT1 cell activity
• DMEM, high glucose (Gibco: 12100); • Fetal bovine serum (Biosera: FB-1058/500); • P/S (Biosera: XC-A4122); • 5× Matrigel (Corning: 354230); • HBSS (Sigma: H1387); • HEPES (Invitrogen: 15630080); • Fluo-8 AM (AAT Bioquest: 21080); • Probenecid (Sigma: P8761); • Pluronic F-127 (Sigma: P2443-250G); • Angiotensin III TFA (MCE: HY-113035A); • Irbesartan (MCE: HY—B0202); • 1000× Fluo-8 AM (2 mM): Fluo-8 AM was dissolved in DMSO, the mixture was shaken for 1-2 min, sub-packaged and stored at −20° C.; • Complete culture medium: DMEM+10% FBS+1×P/S; • Cell seeding medium: DMEM+10% FBS+1×PS; • Experimental buffer 1: 1×HBSS+20 mM HEPES+1 mM Probenecid+0.025% Pluronic F-127; • Experimental buffer 2: 1×HBSS+20 mM HEPES+0.075% Pluronic F-127; • 1× Matrigel: 5× Matrigel was diluted with DMEM; • Cell line: HDB HEK293-AT1.
• 1) HEK293-AT1 cell line was cultured in complete culture medium at 37° C., 5% CO2 to 70%-90% confluence. • 2) the 384-well cell plate was coated with 1× Matrigel with 5 μL/well at room temperature for 10 to 30 min. • 3) the cells were digested and resuspended in cell seeding medium, inoculation was performed at 8,000 cells/well/20 μL in a 384-well cell culture plate, and the cells were cultured at 37° C., 5% CO2 for 24 h. • 4) the cell culture plate was taken out of the CO2 incubator and equilibrated at room temperature for 10 min. • 5) 1000× Fluo-8 AM was taken and diluted to 1× Fluo-8 AM with experimental buffer 1 that has been equilibrated to room temperature, with a concentration of 2 μM. • 6) the culture medium was removed from the cell culture plate, 20 μL of 1× Fluo-8 AM was added to each well, the mixture was centrifuged at 300 rpm for 60 seconds at room temperature, and incubated at room temperature in the dark for 1 h. • 7) positive control compound and test compound working solution (3×) were formulated: • (1) instrument Bravo was used to dilute the compound to 11 concentration points on the 384-well Echo compound plate (LABCYTE: LP-0200); • (2) instrument ECHO was used to transfer 90 nL of compound per well (compound storage concentration, such as the highest concentration point 10 mM) to the 384-well compound plate (PE: 6008590); • (3) Multidrop Combi was used to add 30 μL of experimental buffer 2 to the 384-well compound plate (PE: 6008590), the positive control compound and test compound were diluted to 30 μM (3×), and placed at room temperature until use. • 8) FLIPR Tetra was used to add 10 μL of diluted 3× compound into the experimental well of the corresponding 384-well cell plate, the compound and cells were incubated for 10 min at room temperature, then 10 μL of diluted 4× agonist was added, and the data was read and collected at the same time.
FLIPR Tetra was used to read and collect the fluorescence signal value (RFU). The maximum RFU value was used to calculate the percent activation data based on the readings of the Low control (DMSO control) and High control (100 nM positive compound) experimental groups {% activation rate=(RFUsample−RFUlow control)/(RFUhigh control−RFUlow control)×100}. The concentration of the test compound was 11 concentrations after diluting the reaction system 3 times, ranging from 10 uM to 0.17 nM.
On to `CCCCC1=NC2(CCCC2)C(=O)N1Cc1ccc(-c2ccccc2S(=O)(=O)Nc2noc(C)c2Cl)c(COCC(F)(F)F)c1` [Example 86], for which the IC50 was 2.2 nM.
Next, `CCCCC1=NC2(CC3CC3C2)C(=O)N1Cc1ccc(-c2ccccc2S(=O)(=O)Nc2noc(C)c2C)c(COCC)c1` (stereo not drawn) [Example 87, 4′-((2′-butyl-5′-oxaspiro[bicyclo[3.1.0]hexane-3,4′-imidazole]-1′(5′H)-yl)methyl)-N-(4,5-dimethylisoxazol-3-yl)-2′-(ethoxymethyl)-[1,1′-biphenyl]-2-sulfonamide]: 9.6 nM; `[2H]C([2H])(OCC)c1cc(CN2C(=O)C3(CCCC3)N=C2CCCC)ccc1-c1ccccc1S(=O)(=O)Nc1noc(C)c1Cl` [Example 49, 4′-((2-butyl-4-oxo-1,3-diazospiro[4.4]non-1-en-3-yl)methyl)-N-(4-chloro-5-methylisoxazol-3-yl)-2′-(ethoxydeuteriummethyl)-[1,1′-biphenyl]-2-sulfonamide]: 7.2 nM.
Next, `CCCCC1=NC2(CC3CC3C2)C(=O)N1Cc1ccc(-c2ccccc2S(=O)(=O)Nc2noc(C)c2Cl)c(COCC)c1` (stereo not drawn) [Example 65, 4′-((2′-butyl-5′-oxaspiro[bicyclo[3.1.0]hexane-3,4′-imidazole]-1′(5′H)-yl)methyl)-N-(4-chloro-5-methylisoxazol-3-yl)-2′-(ethoxymethyl)-[1,1′-biphenyl]-2-sulfonamide]: 4.4 nM; `CCCCC1=NC2(CCCC2)C(=O)N1Cc1ccc(-c2ccccc2S(=O)(=O)Nc2noc(C)c2Br)c(COCC)c1` [Example 46, 2-[4-[(2-butyl-4-oxo-1,3-diazaspiro[4.4]non-1-en-3-yl)methyl]-2-(ethoxymethyl)phenyl]-N-(4-bromo-5-methyl-isoxazol-3-yl)benzsulfamide]: 3.9 nM; `CCCCC1=NC2(CCCCC2)C(=O)N1Cc1ccc(-c2ccccc2S(=O)(=O)Nc2noc(C)c2Cl)c(COCC)c1` [Example 68, 4′-((2-2-4-4-oxo-1,3-diazaspiro[4.5]dec-1-en-3-yl)methyl)-N-(4-chloro-5-methylisoxazol-3-yl)-2′-(ethoxymethyl)-[1,1′-biphenyl]-2-sulfonamide]: 8.8 nM.
